Assay results as given in patent US7320972B2, “4-Biarylyl-1-phenylazetidin-2-ones” (Microbia, Inc., priority 2003, dated 2008).

Columns and labels:
[1] = test system: cholesterol absorption (serum 3H-cholesterol); test: In Vivo Assay of Hypolipidemic Agents using the Rat Cholesterol Absorption Model; set-up: species or system Sprague-Dawley rats; conditions: peroral; for % inhibition at 10 mg/kg: 10 mg/kg (footnote 1), serum 3H-cholesterol vs vehicle control; for inhibition in vivo at 1 mg/kg: po; for inhibition in vivo at 1 mg/kg / % inhibition at 1 mg/kg: serum 3H-cholesterol 3 h after cholesterol dose, vs vehicle control
Outline: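 Female Sprague-Dawley rats (150–250 g, 4–6 per group) were fasted overnight and dosed orally with compound in olive oil or vehicle. Thirty minutes later they received 3–5 μCi 3H-cholesterol orally in olive oil, and serum radioactivity was measured at 3 h. % inhibition = 100×(1−Ctest/Cctrl) at a fixed dose; ED50 is the dose giving half-maximal effect.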

Row | Structure (SMILES) | inhibition in vivo at 1 mg/kg [1] [%] | further results
1 | O=C1[C@H](CC[C@H](O)c2ccc(F)cc2)[C@@H](c2ccc(-c3ccc(O)cc3)cc2)N1c1ccc(F)cc1 [Example 2, (3R,4S)-1-(4-fluorophenyl)-3-[(3S)-3-(4-fluorophenyl)-3-hydroxypropyl]-4-(4′-hydroxybiphenyl-4-yl)azetidin-2-one] |  | % inhibition at 10 mg/kg [1]: 54^1%; melting point: 110 °C
2 | O=C1[C@H](CC[C@H](O)c2ccc(F)cc2)[C@@H](c2ccc(-c3cccc(O)c3)cc2)N1c1ccc(F)cc1 [Example 4, (3R,4S)-1-(4-Fluorophenyl)-3-[(3S)-3-(4-fluorophenyl)-3-hydroxypropyl]-4-(3′-hydroxybiphenyl-4-yl)azetidin-2-one] | 72 | melting point: 107 °C
3 | COc1ccc(-c2ccc([C@@H]3[C@@H](CC[C@H](O)c4ccc(F)cc4)C(=O)N3c3ccc(F)cc3)cc2)cc1 [Example 5, (3R,4S)-1-(4-fluorophenyl)-3-[(3S)-3-(4-fluorophenyl)-3-hydroxypropyl]-4-(4′-methoxybiphenyl-4-yl)azetidin-2-one] |  | % inhibition at 10 mg/kg [1]: 26^1%; melting point: 103 °C
4 | O=C1[C@H](CC[C@H](O)c2ccc(F)cc2)[C@@H](c2ccc(O)c(-c3ccccc3)c2)N1c1ccc(F)cc1 [Example 6, (3R,4S)-1-(4-fluorophenyl)-3-[(3S)-3-(4-fluorophenyl)-3-hydroxypropyl]-4-(6-hydroxybiphenyl-3-yl)azetidin-2-one] |  | melting point: 113 °C
5 | O=C1[C@H](CC[C@H](O)c2ccc(F)cc2)[C@@H](c2ccc(-c3ccccc3O)cc2)N1c1ccc(F)cc1 [Example 7, (3R,4S)-1-(4-fluorophenyl)-3-[(3S)-3-(4-fluorophenyl)-3-hydroxypropyl]-4-(2′-hydroxybiphenyl-4-yl)azetidin-2-one] | 30 | melting point: 101 °C
6 | CS(=O)(=O)c1ccc(-c2ccc([C@@H]3[C@@H](CC[C@H](O)c4ccc(F)cc4)C(=O)N3c3ccc(F)cc3)cc2)cc1 [Example 8, (3R,4S)-1-(4-fluorophenyl)-3-[(3S)-3-(4-fluorophenyl)-3-hydroxypropyl]-4-[4′-(methylsulfonyl)biphenyl-4-yl]azetidin-2-one] | 53 | melting point: 111 °C
7 | COc1cc(-c2ccc([C@@H]3[C@@H](CC[C@H](O)c4ccc(F)cc4)C(=O)N3c3ccc(F)cc3)cc2)cc(OC)c1OC [Example 9, (3R,4S)-1-(4-fluorophenyl)-3-[(3S)-3-(4-fluorophenyl)-3-hydroxypropyl]-4-(3′,4′,5′-trimethoxybiphenyl-4-yl)azetidin-2-one] | 40 | melting point: 103 °C
8 | CCCCOc1cccc(-c2ccc([C@@H]3[C@@H](CC[C@H](O)c4ccc(F)cc4)C(=O)N3c3ccc(F)cc3)cc2)c1 [Example 109, (3R,4S)-4-(3′-butoxybiphenyl-4-yl)-1-(4-fluorophenyl)-3-[(3S)-3-(4-fluorophenyl)-3-hydroxypropyl]azetidin-2-one] | 52 | 
9 | O=C(O)c1ccc(-c2ccc([C@@H]3[C@@H](CC[C@H](O)c4ccc(F)cc4)C(=O)N3c3ccc(F)cc3)cc2)cc1O [Example 110, 4′-{(2S,3R)-1-(4-fluorophenyl)-3-[(3S)-3-(4-fluorophenyl)-3-hydroxypropyl]-4-oxoazetidin-2-yl}-3-hydroxybiphenyl-4-carboxylic Acid] | 72 | 
10 | COc1cc(F)cc(-c2ccc([C@@H]3[C@@H](CC[C@H](O)c4ccc(F)cc4)C(=O)N3c3ccc(F)cc3)cc2)c1 [Example 111, (3R,4S)-4-(3′-fluoro-5′-methoxybiphenyl-4-yl)-1-(4-fluorophenyl)-3-[(3S)-3-(4-fluorophenyl)-3-hydroxypropyl]azetidin-2-one] | 72 | 
11 | O=C1[C@H](CC[C@H](O)c2ccc(F)cc2)[C@@H](c2ccc(-c3cc(O)cc(F)c3)cc2)N1c1ccc(F)cc1 [Example 112, (3R,4S)-4-(3′-fluoro-5′-hydroxybiphenyl-4-yl)-1-(4-fluorophenyl)-3-[(3S)-3-(4-fluorophenyl)-3-hydroxypropyl]azetidin-2-one] | 75 | 
12 | O=C1[C@H](CC[C@H](O)c2ccc(F)cc2)[C@@H](c2ccc(-c3cccc([C@@H]4O[C@@H](CO)[C@H](O)[C@@H](O)[C@@H]4O)c3)cc2)N1c1ccc(F)cc1 [Example 113, (1S)-1,5-anhydro-1-(4′-{(2S,3R)-1-(4-fluorophenyl)-3-[(3S)-3-(4-fluorophenyl)-3-hydroxypropyl]-4-oxoazetidin-2-yl}biphenyl-3-yl)-L-glucitol] | 67 | 
13 | O=C1[C@H](CC[C@H](O)c2ccc(F)cc2)[C@@H](c2ccc(-c3cc(O)cc(O)c3)cc2)N1c1ccc(F)cc1 [Example 114, (3R,4S)-4-(3′,5′-dihydroxybiphenyl-4-yl)-1-(4-fluorophenyl)-3-[(3S)-3-(4-fluorophenyl)-3-hydroxypropyl]azetidin-2-one] | 72 | 
14 | O=C1[C@H](CC[C@H](O)c2ccc(F)cc2)[C@@H](c2ccc(-c3cccc(B(O)O)c3)cc2)N1c1ccc(F)cc1 [Example 115, (4′-{(2S,3R)-1-(4-fluorophenyl)-3-[(3S)-3-(4-fluorophenyl)-3-hydroxypropyl]-4-oxoazetidin-2-yl}biphenyl-3-yl)boronic Acid] | 70 | 
15 | O=C1[C@H](CC[C@H](O)c2ccc(F)cc2)[C@@H](c2ccc(-c3ccc([C@H]4O[C@@H](CO)[C@H](O)[C@@H](O)[C@@H]4O)cc3)cc2)N1c1ccc(F)cc1 [Example 116, (1R)-1,5-anhydro-1-(4′-{(2S,3R)-1-(4-fluorophenyl)-3-[(3S)-3-(4-fluorophenyl)-3-hydroxypropyl]-4-oxoazetidin-2-yl}biphenyl-4-yl)-L-glucitol] | 81 | 
16 | O=C1[C@H](CC[C@H](O)c2ccc(F)cc2)[C@@H](c2ccc(-c3cccc(C[C@@H]4O[C@H](CO)[C@@H](O)[C@H](O)[C@H]4O)c3)cc2)N1c1ccc(F)cc1 [Example 117] |  | % inhibition at 1 mg/kg [1]: 26%
17 | O=C1[C@H](CC[C@H](O)c2ccc(F)cc2)[C@@H](c2ccc(-c3cccc(S(=O)(=O)O)c3)cc2)N1c1ccc(F)cc1 [Example 118, 4′-{(2S,3R)-1-(4-fluorophenyl)-3-[(3S)-3-(4-fluorophenyl)-3-hydroxypropyl]-4-oxoazetidin-2-yl}biphenyl-3-sulfonic Acid] | 61 | 
18 | O=C1[C@H](CC[C@H](O)c2ccc(F)cc2)[C@@H](c2ccc(-c3cccc(S)c3)cc2)N1c1ccc(F)cc1 [Example 119, (3R,4S)-1-(4-fluorophenyl)-3-[(3S)-3-(4-fluorophenyl)-3-hydroxypropyl]-4-(3′-mercaptobiphenyl-4-yl)azetidin-2-one] | 56 | 
19 | C[N+](C)(C)c1cccc(-c2ccc([C@@H]3[C@@H](CC[C@H](O)c4ccc(F)cc4)C(=O)N3c3ccc(F)cc3)cc2)c1 [Example 120, 4′-{(2S,3R)-1-(4-fluorophenyl)-3-[(3S)-3-(4-fluorophenyl)-3-hydroxypropyl]-4-oxoazetidin-2-yl}-N,N,N-trimethylbiphenyl-3-aminium] |  | % inhibition at 1 mg/kg [1]: 23%
20 | O=C1[C@H](CC[C@H](O)c2ccc(F)cc2)[C@@H](c2ccc(-c3cccc(O)c3)cc2O)N1c1ccc(F)cc1 [Example 121, (3R,4S)-4-(3,3′-dihydroxybiphenyl-4-yl)-1-(4-fluorophenyl)-3-[(3S)-3-(4-fluorophenyl)-3-hydroxypropyl]azetidin-2-one] | 72 | 
21 | O=C1[C@H](CC[C@H](O)c2ccc(F)cc2)[C@@H](c2ccc(-c3cccc(P(=O)(O)O)c3)cc2)N1c1ccccc1 [Example 122, (4′-{(2S,3R)-3-[(3S)-3-(4-fluorophenyl)-3-hydroxypropyl]-4-oxo-1-phenylazetidin-2-yl}biphenyl-3-yl)phosphonic Acid] | 67 | 
22 | CS(=O)(=O)c1cccc(-c2ccc([C@@H]3[C@@H](CC[C@H](O)c4ccc(F)cc4)C(=O)N3c3ccccc3)c(O)c2)c1 [Example 123, (3R,4S)-3-[(3S)-3-(4-fluorophenyl)-3-hydroxypropyl]-4-[3-hydroxy-3′-(methylsulfonyl)biphenyl-4-yl]-1-phenylazetidin-2-one] | 72 | 
23 | O=C1[C@H](CC[C@H](O)c2ccc(F)cc2)[C@@H](c2ccc(-c3cccc(O)c3)cc2)N1c1ccc(-c2ccccc2)cc1 [Example 124, (3R,4S)-1-biphenyl-4-yl-3-[(3S)-3-(4-fluorophenyl)-3-hydroxypropyl]-4-(3′-hydroxybiphenyl-4-yl)azetidin-2-one] | 48 | 
24 | O=C1[C@H](CC[C@H](O)c2ccc(F)cc2)[C@@H](c2ccc(-c3ccc(O)cc3)cc2O)N1c1ccccc1 [Example 125, (3R,4S)-4-(3,4′-dihydroxybiphenyl-4-yl)-3-[(3S)-3-(4-fluorophenyl)-3-hydroxypropyl]-1-phenylazetidin-2-one] | 64 | 
25 | O=C1[C@H](CC[C@H](O)c2ccc(F)cc2)[C@@H](c2ccc(-c3ccc(P(=O)(O)O)cc3)cc2O)N1c1ccccc1 [Example 127, (4′-{(2S,3R)-3-[(3S)-3-(4-Fluorophenyl)-3-hydroxypropyl]-4-oxo-1-phenylazetidin-2-yl}-3′-hydroxybiphenyl-4-yl)phosphonic Acid] | 58 | 
26 | O=C1[C@H](CC[C@H](O)c2ccc(F)cc2)[C@@H](c2ccc(-c3ccc(S(=O)(=O)O)cc3)cc2O)N1c1ccccc1 [Example 128, Sodium 4′-{(2S,3R)-3-[(3S)-3-(4-fluorophenyl)-3-hydroxypropyl]-4-oxo-1-phenylazetidin-2-yl}-3′-hydroxybiphenyl-4-sulfonate] | 60 | 
